Source: ChEMBL document CHEMBL4507279, “Data for DCP probe BI-9627” (2021)

Tests used:
Details in all cases: Compound concentration 10.0 uM
[1] = biological target: Melatonin receptor type 1A (Homo sapiens) (UniProt P48039)
[2] = biological target: Thyroid hormone receptor alpha (Rattus norvegicus) (UniProt P63059); experiment: THYROID HORM Eurofins-Panlabs selectivity data (BI)
[3] = biological target: Prostaglandin E2 receptor EP4 subtype (Homo sapiens) (UniProt P35408); experiment: EP4/H Eurofins-Panlabs selectivity data (BI)
[4] = biological target: T1, Muscarinic acetylcholine receptor M1 (Homo sapiens) (UniProt P11229); experiment: M1/HU Eurofins-Panlabs selectivity data (BI)
T1 sequence (whole entry): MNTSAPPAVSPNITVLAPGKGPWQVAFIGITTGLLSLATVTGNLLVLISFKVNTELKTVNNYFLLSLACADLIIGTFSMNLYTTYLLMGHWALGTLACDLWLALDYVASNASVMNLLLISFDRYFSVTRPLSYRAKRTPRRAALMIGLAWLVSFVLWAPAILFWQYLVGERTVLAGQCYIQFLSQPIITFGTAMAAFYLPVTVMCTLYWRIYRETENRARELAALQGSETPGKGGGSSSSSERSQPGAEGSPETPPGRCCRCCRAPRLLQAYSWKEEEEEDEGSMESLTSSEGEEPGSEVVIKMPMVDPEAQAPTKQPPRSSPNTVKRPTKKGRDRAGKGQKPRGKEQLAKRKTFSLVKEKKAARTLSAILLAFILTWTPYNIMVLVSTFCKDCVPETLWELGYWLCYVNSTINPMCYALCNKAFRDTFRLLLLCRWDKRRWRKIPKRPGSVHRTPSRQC

[5] = biological target: Voltage-dependent N-type calcium channel subunit alpha-1B (Rattus norvegicus) (UniProt Q02294); experiment: CA+/N/RA Eurofins-Panlabs selectivity data (BI)

Measured: residual activity

Chain of Prostaglandin E2 receptor EP4 subtype (Homo sapiens) (P35408 whole entry): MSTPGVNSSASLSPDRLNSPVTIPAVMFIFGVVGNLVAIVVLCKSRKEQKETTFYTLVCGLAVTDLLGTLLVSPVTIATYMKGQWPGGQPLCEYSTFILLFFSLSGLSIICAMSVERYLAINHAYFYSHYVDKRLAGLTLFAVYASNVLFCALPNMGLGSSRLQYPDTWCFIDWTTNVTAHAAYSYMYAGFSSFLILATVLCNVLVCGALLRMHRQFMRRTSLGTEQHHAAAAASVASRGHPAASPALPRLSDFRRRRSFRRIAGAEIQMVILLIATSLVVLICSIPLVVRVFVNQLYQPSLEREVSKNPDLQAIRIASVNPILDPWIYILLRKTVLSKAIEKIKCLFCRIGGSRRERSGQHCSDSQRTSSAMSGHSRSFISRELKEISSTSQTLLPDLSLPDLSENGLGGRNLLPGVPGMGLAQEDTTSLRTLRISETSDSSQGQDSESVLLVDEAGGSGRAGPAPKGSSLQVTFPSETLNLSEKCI
Chain of Thyroid hormone receptor alpha (Rattus norvegicus) (P63059 whole entry): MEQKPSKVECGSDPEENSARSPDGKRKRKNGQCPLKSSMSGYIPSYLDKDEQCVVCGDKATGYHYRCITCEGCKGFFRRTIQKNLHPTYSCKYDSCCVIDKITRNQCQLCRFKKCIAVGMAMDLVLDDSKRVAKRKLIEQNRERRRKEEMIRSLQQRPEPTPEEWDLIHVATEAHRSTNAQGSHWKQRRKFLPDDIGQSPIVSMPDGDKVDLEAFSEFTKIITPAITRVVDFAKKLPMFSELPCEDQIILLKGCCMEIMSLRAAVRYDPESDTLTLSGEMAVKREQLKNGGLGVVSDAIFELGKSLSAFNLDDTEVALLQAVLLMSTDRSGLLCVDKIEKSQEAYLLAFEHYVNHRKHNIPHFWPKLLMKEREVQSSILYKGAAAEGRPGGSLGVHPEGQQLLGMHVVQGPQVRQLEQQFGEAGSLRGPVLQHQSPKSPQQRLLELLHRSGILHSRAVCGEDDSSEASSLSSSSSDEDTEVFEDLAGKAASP
Chain of Melatonin receptor type 1A (Homo sapiens) (P48039 whole entry): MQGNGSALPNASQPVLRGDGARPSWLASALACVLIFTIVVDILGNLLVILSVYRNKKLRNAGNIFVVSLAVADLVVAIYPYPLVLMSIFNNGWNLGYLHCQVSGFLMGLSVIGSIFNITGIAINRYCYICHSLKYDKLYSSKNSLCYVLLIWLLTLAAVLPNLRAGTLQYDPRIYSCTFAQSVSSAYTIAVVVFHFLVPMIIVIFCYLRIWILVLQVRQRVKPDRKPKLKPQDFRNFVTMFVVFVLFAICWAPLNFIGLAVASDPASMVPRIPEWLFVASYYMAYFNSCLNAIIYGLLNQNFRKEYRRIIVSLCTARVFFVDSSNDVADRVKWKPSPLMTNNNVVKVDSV
Chain of Voltage-dependent N-type calcium channel subunit alpha-1B (Rattus norvegicus) (Q02294 whole entry, looked up): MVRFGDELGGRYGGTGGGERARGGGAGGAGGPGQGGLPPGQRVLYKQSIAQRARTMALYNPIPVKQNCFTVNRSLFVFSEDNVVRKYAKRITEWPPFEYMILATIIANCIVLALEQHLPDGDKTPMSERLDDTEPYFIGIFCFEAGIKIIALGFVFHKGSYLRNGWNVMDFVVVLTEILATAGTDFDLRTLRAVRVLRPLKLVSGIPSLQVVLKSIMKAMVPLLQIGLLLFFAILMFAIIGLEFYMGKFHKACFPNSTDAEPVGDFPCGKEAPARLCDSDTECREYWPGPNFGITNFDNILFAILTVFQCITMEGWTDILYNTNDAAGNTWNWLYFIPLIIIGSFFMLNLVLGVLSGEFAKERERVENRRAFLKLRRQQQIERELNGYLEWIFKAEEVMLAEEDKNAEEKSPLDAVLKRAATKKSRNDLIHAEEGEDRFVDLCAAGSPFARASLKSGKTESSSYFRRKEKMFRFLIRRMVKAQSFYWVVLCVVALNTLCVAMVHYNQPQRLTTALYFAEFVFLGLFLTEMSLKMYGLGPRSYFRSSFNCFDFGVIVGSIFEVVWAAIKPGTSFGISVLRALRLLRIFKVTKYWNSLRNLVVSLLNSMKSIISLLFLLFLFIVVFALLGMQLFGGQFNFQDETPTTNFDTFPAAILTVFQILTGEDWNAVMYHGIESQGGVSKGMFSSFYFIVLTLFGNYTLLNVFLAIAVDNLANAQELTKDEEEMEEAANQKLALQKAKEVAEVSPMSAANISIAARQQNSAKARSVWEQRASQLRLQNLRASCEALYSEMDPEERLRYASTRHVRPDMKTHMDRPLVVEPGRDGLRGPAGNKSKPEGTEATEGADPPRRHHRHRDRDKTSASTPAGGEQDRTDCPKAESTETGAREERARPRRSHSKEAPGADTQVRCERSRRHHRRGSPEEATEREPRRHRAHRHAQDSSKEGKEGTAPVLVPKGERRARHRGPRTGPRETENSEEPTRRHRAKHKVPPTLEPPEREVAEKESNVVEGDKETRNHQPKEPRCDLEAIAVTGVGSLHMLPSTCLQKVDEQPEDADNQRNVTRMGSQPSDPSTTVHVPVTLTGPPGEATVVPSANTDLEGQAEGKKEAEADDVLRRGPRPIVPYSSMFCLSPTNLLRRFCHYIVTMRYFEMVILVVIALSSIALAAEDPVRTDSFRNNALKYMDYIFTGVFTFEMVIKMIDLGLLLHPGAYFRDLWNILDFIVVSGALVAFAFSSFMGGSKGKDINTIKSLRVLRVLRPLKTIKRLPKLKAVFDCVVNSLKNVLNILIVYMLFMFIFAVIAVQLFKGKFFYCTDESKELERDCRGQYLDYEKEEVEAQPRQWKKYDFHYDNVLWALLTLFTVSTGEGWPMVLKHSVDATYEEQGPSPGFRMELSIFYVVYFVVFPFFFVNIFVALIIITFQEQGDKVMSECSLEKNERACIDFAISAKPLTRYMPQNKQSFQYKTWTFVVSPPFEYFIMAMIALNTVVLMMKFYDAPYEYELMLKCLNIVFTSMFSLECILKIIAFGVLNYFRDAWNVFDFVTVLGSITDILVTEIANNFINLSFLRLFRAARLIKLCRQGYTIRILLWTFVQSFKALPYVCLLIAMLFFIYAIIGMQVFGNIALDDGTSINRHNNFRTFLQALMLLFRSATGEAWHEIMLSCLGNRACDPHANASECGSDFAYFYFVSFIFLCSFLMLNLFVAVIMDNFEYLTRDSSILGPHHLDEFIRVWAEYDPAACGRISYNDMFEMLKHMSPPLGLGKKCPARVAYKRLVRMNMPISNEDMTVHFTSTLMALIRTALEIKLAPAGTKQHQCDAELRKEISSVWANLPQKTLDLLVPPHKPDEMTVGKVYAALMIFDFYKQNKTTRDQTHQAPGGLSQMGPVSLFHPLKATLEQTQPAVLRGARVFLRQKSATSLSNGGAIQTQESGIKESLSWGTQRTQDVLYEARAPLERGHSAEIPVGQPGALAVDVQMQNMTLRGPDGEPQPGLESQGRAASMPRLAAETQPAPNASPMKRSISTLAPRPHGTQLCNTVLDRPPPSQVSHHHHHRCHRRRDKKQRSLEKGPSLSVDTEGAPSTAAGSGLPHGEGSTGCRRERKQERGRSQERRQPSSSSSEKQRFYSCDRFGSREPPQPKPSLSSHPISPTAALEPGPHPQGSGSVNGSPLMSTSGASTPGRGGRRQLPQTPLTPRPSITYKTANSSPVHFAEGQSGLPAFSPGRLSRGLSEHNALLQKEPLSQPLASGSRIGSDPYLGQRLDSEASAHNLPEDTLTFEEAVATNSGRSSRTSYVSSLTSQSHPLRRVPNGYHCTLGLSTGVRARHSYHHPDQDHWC

CC(=O)N1CCC(c2ccc(C(=O)NC(=N)N)cc2C(F)(F)F)CC1 [BI 9627]
inactive: [1] 96% | [2] 93% | [3] 99% | [4] 61% | [5] 98%
